On the set-up of series [1]: method as in manuscript in preparation. The note with it: 28-day repeat dosing at 400 mg/kg in primates; ref manuscript in preparation; cited from earlier work.
Series [2] in a line: Formulation concentration. Type of series: physicochemical.
On the set-up of series [3]: method as in manuscript in preparation. The note with it: doses up to 1,000 mg/kg in adult rats; ref manuscript in preparation; cited from earlier work.

Like-named read-outs stand apart in the source and are kept apart here.

Results on 1 compound are retold here after PMC9081329, “Pharmacokinetics, Mass Balance, Excretion, and Tissue Distribution of Plasmalogen Precursor PPI-1011” (Frontiers in Cell and Developmental Biology, 2022).

Turning to `CC/C=C\C/C=C\C/C=C\C/C=C\C/C=C\C/C=C\CCC(=O)OC(COCCCCCCCCCCCCCCCC)COC(=O)CCCCC1CCSS1` (stereo not drawn) [PPI-1011, 1-O-hexadecyl-2-O-cis-4,7, 10, 13, 16, 19-docosahexaenoyl-3-O-lipoyl glycerol], the “Toxicity or adverse effects” value in series [1] and in series [3] was “no toxicity or adverse effects” each time. For the same compound, the “Concentration amenable to formulation” value in series [2] is at most 500000 µg/mL.
